The source of these data is patent US20090226427A1, “NOVEL PHARMACEUTICAL COMPOSITIONS FOR MODULATING ANGIOGENESIS” (priority 1999, published 2009).

Assay [1] deals with caveolin. As to the kind of experiment: caveolin immunoblot, AECs. Format: cell-based, Bovine. Conditions: AECs; culture medium supplemented with mevalonate. An excerpt:
(§1) Therefore, the effects of statin exposure on the absolute amounts of caveolin in AoECs and CMECs was examined.
Background: In western blotting, separated proteins are transferred to a membrane and probed.

Assay [2] deals with caveolin. In words: caveolin immunoblot, AoECs. Conditions: AoECs; culture medium supplemented with mevalonate. Format: cell-based, rat.
From the text: as §1

Assay [3] relates to phospho-Akt/eNOS interaction. As to the kind of experiment: eNOS/phospho-Akt co-immunoprecipitation, statin-exposed HUVECs. Conditions: co-IP.
Another assay relates to phospho-Ser1177-eNOS. In words: phospho-Ser1177-eNOS immunoblot, statin-exposed HUVECs. Conditions: atorvastatin 1 μmol/L, LY294002 10 μmol/L, geldanamycin 1 μg/mL, mevalonate 1 mmol/L, BAPTA-AM 20 μmol/L, CSD peptide loading.
Another assay has as its system eNOS/hsp90 interaction. As to the kind of experiment: eNOS/hsp90 co-immunoprecipitation, statin-exposed HUVECs. Conditions: mevalonate 1 mmol/L, BAPTA-AM 20 μmol/L, CSD peptide loading.
Another assay relates to phospho-eNOS. As to the kind of experiment: phospho-eNOS immunoblot, insulin-stimulated cardiac myocytes. It is filed as cell-based. Conditions: neonatal mouse cardiac myocytes.
Another assay concerns phospho-Akt. In words: phospho-Akt immunoblot, insulin-stimulated cardiac myocytes. The following applies: neonatal mouse cardiac myocytes. It is filed as cell-based.
In a further assay the test system is phospho-GSK-3. In words: phospho-GSK-3 immunoblot, insulin-stimulated cardiac myocytes. It is filed as cell-based. Conditions: neonatal mouse cardiac myocytes.
The test system of assay [4] is TLT cells (hepatocarcioma). In words: TLT tumor mouse model, tumor volume. It is filed as in vivo, mice. The following applies: immunological detection of HA tag in tumor endothelial cells. An excerpt: Hepatocarcinoma cells are able to grow as a tumor after injection in the leg of mice is dependent on the ability of endothelial cells to develop new vessels to “feed” the tumor. This vessel development depends on the capacity of endothelial cells to produce NO through eNOS activation in these cells, itself regulated by the post-translational modulators it was previously identified in the in vitro experiments, e.g. caveolin-1.
Tumor mouse model: 30-40 g male NMRI mice received an IP injection of TLT cells (hepatocarcioma). Ascite cells were recovered in physiological serum and IM-injected in the posterior left leg of ketamine/xylazin anesthetized mice. Tumors grew for 9-12 days to reach 8±1 mm of diameter, the original diameter for treatment (caveolin plasmid injection) at day 0.
The effect of injection of plasmids encoding caveolin-1 has been evaluated on the volume of the growing tumor after tumor implantation in the leg (FIG. 2). Caveolin-encoding plasmids were injected either intravenously or directly in the tumor. The working hypothesis was that heterologous over-expression of caveolin-1 in endothelial cells will inhibit eNOS activation in endothelial cells, with a subsequent inhibition of angiogenesis that will result in a decrease in tumor growth.

Protocol for phospho-GSK-3: (§2) Cell Culture was performed as follows: Freshly isolated human umbilical vein EC (HUVEC) were cultured to confluence in 100-mm dishes in a 2:1 mixture of M199/endothelial cell basal medium containing 10% serum; control experiments were also performed with myocytes isolated from neonatal mice as previously detailed (Feron, et al. (1998) J. Biol. Chem. 273, 30249-30254) and plated at 5×10^5 cells/ml. Serum-starved EC and myocytes were exposed for the indicated periods of time to VEGF (50 ng/ml) and insulin (12.5 milliunits/ml), respectively, in the presence or absence of various pharmacological modulators (30-60 min preincubation with 1 μg/ml geldanamycin (Invitrogen Life Technolo-gies) or 10 μM LY294002 (Sigma)).
(§3) Accordingly, neonatal mouse cardiac myocytes were exposed to insulin (a known activator of Akt in myocytes) for 5 min with or without geldanamycin and examined the phosphorylation status of Akt and eNOS. […] Myocytes show native expression of GSK-3 and were used to determine whether geldanamycin could influence the phosphorylation of this other Akt substrate.
Protocol for phospho-eNOS: as §2, §3

Consider `CC(O)(CCO)CC(=O)O` (stereo not drawn) [mevalonate], for which the “effect on statin-induced reduction in caveolin abundance” value in the assay on caveolin [1] and in the assay on caveolin [2] was “blocked the statin-induced reduction in caveolin abundance” throughout. For the same molecule, the “effect on phospho-Akt/eNOS interaction upon statin” value in assay [3] is given as “reverse the stimulatory effect”. In addition, in the assay on phospho-Ser1177-eNOS, the “effect on statin-induced phosphorylation of eNOS” value was “reverse the stimulatory effect”. Moreover, in the assay with eNOS/hsp90 interaction, the “effect on atorvastatin-stimulated eNOS/hsp90 interaction” value is given as “reverse the stimulatory effect”.
Consider “insulin: a known activator of Akt in myocytes”, for which the eNOS phosphorylation result in the assay with phospho-eNOS is reported as “stimulatory effect”. Moreover, the Akt phosphorylation entry with phospho-Akt is given as “stimulatory effect”. Also, the GSK-3 phosphorylation entry with phospho-GSK-3 is listed as “stimulatory effect”.

B1: recombinant (HA-tagged-) caveolin: recombinant caveolin-1 tagged with hemagglutinin antigen, expressed from the injected plasmid (protein, UniProt Q03135 2-178, looked up)
Caveolin-1: SGGKYVDSEGHLYTVPIREQGNIYKPNNKAMADELSEKQVYDAHTKEIDLVNRDPKHLNDDVVKIDFEDVIAEPEGTHSFDGIWKASFTTFTVTKYWFYRLLSALFGIPMALIWGIYFAILSFLHIWAVVPCIKSFLIEIQCISRVYSIYVHTVCDPLFEAVGKIFSNVRINLQKEI
modifications: HA tag
notes: recombinant caveolin-1 tagged with hemagglutinin antigen, expressed from the injected plasmid
As for B1, in assay [4], the “extent of recombinant caveolin expression in relation to tumor volume” value is on record as “inversely correlated to the tumor volume”.
